Data reported in patent US9167822B2, “Antifungal compositions” (DSM IP ASSETS B.V., priority 2012, dated 2015).

System: Botrytis cinerea
Experiment: In vitro antifungal activity, 96-well microtiter plates
Format: cell-based
Conditions: 25° C., day 3, 1.25 ppm natamycin, 6.25 ppm isopyrazam or both
Experimental: Subsequently, 100 μl of a Botrytis cinerea suspension prepared in PCB medium was used to inoculated each well with 2.5×10^3 spores/ml. […] After incubation of the microtiter plates at 25° C., the in vitro antifungal activity (%) of the individual active ingredients was assessed by calculating the reduction in mould growth observed in the presence of the active ingredient in comparison to the mould growth observed in the absence of the active ingredient. The expected antifungal activity (E in %) of the active ingredient combination was calculated according to the Colby equation (Colby, 1967): […]

With `C[C@@H]1C/C=C/C=C/C=C/C=C/[C@H](O[C@@H]2O[C@H](C)[C@@H](O)[C@H](N)[C@@H]2O)C[C@@H]2O[C@](O)(C[C@@H](O)C[C@H]3O[C@@H]3/C=C/C(=O)O1)C[C@H](O)[C@H]2C(=O)O` [Natamycin, natamycin] the “Observed antifungal activity O (%)” value was 0%.
